Laboratory results taken from article PMC9964746, “Mechanism of Action and Structure–Activity Relationships of Tetracyclic Small Molecules Acting as Universal Positive Allosteric Modulators of the Cholecystokinin Receptor” (Membranes, 2023).

Assays:
[1] = biological target: T1, CCK2R (Homo sapiens, UniProt P32239); assay: Intracellular calcium assay (Fura-8-AM) in CHO-CCK2R cells; format: cell-based; settings: compound 10 µM
T1 construct: expressed in transfected cells; host or cells: CHO-K1 (CHO-CCK2R line)
T1 sequence (P32239 1-447): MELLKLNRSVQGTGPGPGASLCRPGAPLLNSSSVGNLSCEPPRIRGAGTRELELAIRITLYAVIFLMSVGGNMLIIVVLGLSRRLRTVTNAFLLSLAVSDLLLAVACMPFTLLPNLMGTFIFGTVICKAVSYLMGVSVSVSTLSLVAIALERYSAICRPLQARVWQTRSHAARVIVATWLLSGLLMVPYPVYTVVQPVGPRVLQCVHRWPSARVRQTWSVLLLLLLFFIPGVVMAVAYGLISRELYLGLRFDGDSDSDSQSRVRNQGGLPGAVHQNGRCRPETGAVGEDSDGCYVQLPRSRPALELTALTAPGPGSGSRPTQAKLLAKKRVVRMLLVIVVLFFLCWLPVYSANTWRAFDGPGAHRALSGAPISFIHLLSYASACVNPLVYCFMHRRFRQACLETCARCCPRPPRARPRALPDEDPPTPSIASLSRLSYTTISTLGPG
Method: (§1) Biological activity was quantified in the CHO cell lines described above using intracellular calcium assays that were performed, as previously described, using Fura-8-AM (AAT Bioquest, Pleasonton, CA, USA). Full agonist dose–response curves were performed along with determination of maximal responses to 0.1 mM ATP, targeting an endogenous receptor present on the parental cells. Concentration–response curves of peak intracellular calcium responses were analyzed and plotted as percentages of maximal responses using non-linear regression analysis in Prism 9.1 (GraphPad).

[2] = test system: parental CHO cells; assay: Intracellular calcium assay in parental CHO cells; format: cell-based; settings: compound alone, up to 20 µM
Method: as §1

[3] = test system: purinergic receptor (P2YR); settings: off-target screen ref 6; cited from earlier work
[4] = biological target: T2, CCK1R (Homo sapiens, UniProt P32238); assay: Intracellular calcium assay (Fura-8-AM) in CHO-CCK1R cells; format: cell-based; design: expressed in transfected cells; settings: for Intrinsic agonist activity at CCK1R (intracellular calcium): CHO-CCK1R cells, compound alone, up to 20 µM; for Kb / Logαβ: operational model of allosterism, mean ± SEM; for Kb: CCK-8-stimulated calcium responses in CCK1R-expressing cells; for Logαβ: cooperativity with CCK-8 in CCK1R-expressing cells
T2 sequence (P32238 1-428): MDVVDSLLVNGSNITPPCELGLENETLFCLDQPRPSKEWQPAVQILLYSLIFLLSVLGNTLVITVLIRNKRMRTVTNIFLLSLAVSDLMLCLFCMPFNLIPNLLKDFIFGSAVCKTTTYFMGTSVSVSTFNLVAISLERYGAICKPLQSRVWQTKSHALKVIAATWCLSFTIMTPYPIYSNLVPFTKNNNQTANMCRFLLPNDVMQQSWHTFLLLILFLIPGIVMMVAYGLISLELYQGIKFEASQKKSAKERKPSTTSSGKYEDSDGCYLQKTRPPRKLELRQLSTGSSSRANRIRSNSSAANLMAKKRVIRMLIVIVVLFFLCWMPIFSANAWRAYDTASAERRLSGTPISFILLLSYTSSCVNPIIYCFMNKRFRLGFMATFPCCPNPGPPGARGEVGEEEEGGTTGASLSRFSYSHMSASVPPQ
Method: as §1

[5] = biological target: T2, CCK1R; assay: Receptor internalization assay with alexa488-CCK; format: cell-based; design: expressed in transfected cells; host or cells: HEK-293; settings: hits at 10 µM; cell surface receptor labelled with alexa488-CCK
Method: Receptor internalization assays were performed with the fluorescent alexa488-CCK ligand used to visualize cell surface receptors after treatment and fixation with 2% paraformaldehyde (Electron Microscopy Sciences, Cat# 15710), as we described. Images were acquired with a Zeiss Axiovert 200M inverted epifluorescence microscope.

[6] = biological target: T2, CCK1R; assay: CCK1R cAMP accumulation assay, PAM format, HEK-293 CCK1R cells; format: cell-based; design: expressed in transfected cells; host or cells: HEK-293; settings: for EC50: EC20 concentration of CCK; for Emax: HEK293, EC20 concentration of CCK
Method: Possible off-target biological effects. […] Here, we tested them at the vasopressin-2 receptor (AVP2R), representing a class A GPCR structurally related to CCK1R, which is coupled to Gs. The activity at AVP2R was tested using AVP2R-overexpressing CHO-K1 (PAM format) or HEK-293 (agonist format) cells, stimulating the cells with vasopressin. Original hits were tested in both agonist and PAM formats. Since all recognized compound responses were present in both formats, we continued to screen analogs in only the PAM format (also able to capture agonist effects) in CHO-K1 AVP2R cells for potential enhanced sensitivity. The dose–response data sets for original hits were combined, as the PAM and agonist effects were indistinguishable. In brief, arginine vasopressin (AVP) orthosteric stimulator dilutions and ligand and compound dose–response titrations in DMSO were transferred onto a 1536-well plate (Corning #3725) using an Echo liquid handler (Labcyte). Thawed cryopreserved cell stocks were diluted in stimulation buffer consisting of HBSS (Hank’s Balanced Salt Solution with Ca^2+ and Mg^2+, Gibco #24020117), 5 mM HEPES (hydroxyethyl piperazineethanesulfonic acid), 0.5 mM IBMX (3-isobutyl-1-methylxanthine, Sigma-Aldrich), and 0.075% BSA (7.5% DTPA-purified bovine serum albumin, PerkinElmer). The resulting cell suspension was added to the microplate and incubated with test compounds at room temperature for 30 min. Then, the detection reagents from the Cisbio cAMP Gs Dynamic HTRF detection kit were added. The plate was kept at room temperature for 30 min and read on a PHERAstar FSX microplate reader. Dose–response curves were performed as 16-point 2-fold dilutions in duplicate in at least two independent experiments.
For CCK1R-induced Gs signaling studies, we performed cAMP accumulation assays as described above and as previously reported, utilizing the HEK-293 cells overexpressing CCK1Rs and the EC20 concentration of CCK for screening in PAM format.

Logαβ ([4]; listed as Hit 6)	Logαβ ([4]; listed as hit 6)	SMILES	Effect on CCK action at CCK2R (intracellular calcium) [1]	Agonist activity at parental CHO cells (intracellular calcium) [2]	Activity at P2YR [3]	Intrinsic agonist activity at CCK1R (intracellular calcium) [4]	Kb [4]	Logαβ ([4]; listed as Hit 1)	Logαβ ([4]; listed as hit 1)	CCK1R internalization [5]	EC50 [6]	Emax [6]
–	–	CCN(CC)CCNc1ncnc2c1sc1nc(N3CCOCC3)c3c(c12)CCCC3 [CMP-1]	no effect on CCK2R	no significant endogenous agonist activity	Neither compound exhibited any activity at the P2YR	no significant endogenous agonist activity at CCK1R	31.6 µM	1.5 ± 0.3	1.5	neither “hit” cleared the receptor from the cell surface	14.7 ± 7.3 µM	48 ± 31%
1.0 ± 0.2	1.0	CCCc1nc2oc3c(NCCCN(C)C)ncnc3c2c2c1CCCC2 [CMP-28]	no effect on CCK2R	no significant endogenous agonist activity	Neither compound exhibited any activity at the P2YR	no significant endogenous agonist activity at CCK1R	25.1 µM	–	–	neither “hit” cleared the receptor from the cell surface	15.6 ± 12.4 µM	56 ± 26%
